Experimental data as given in PubChem BioAssay AID1845205 (Molecular Pharmacology Branch, DTP, NCI, 2023).

Tested on: MPNST multicellular tumor spheroids, viability % test/control
Test: Anticancer human tumor MPNST cell line growth inhibition;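 further: spheroids exposed to agents for seven days after three days of growth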;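 on viability, T/C: luminescence signal used as surrogate for viable cell amount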
Details: for IC50: curve of first compound; for viability, T/C: stronger effect = lower value
How it was run: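 Complex tumor spheroids combined malignant cells with endothelial cells and mesenchymal stem cells. DNA-damaging drugs and DNA repair inhibitors were tested alone and in combination, at half-log dilutions down from clinical Cmax (top 10 microM if Cmax unknown), 0.25% DMSO final.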

`Cc1sc2c(c1C)C(c1ccc(Cl)cc1)=NC(CC(=O)Nc1ccc(O)cc1)c1nnc(C)n1-2` (stereo not given) + Cn1nnc2c(C(N)=O)ncn2c1=O was tested, and the IC50 (second compound 1 µM) was 1440 nM, the IC50 (second compound 3.16 µM) was 813 nM and the IC50 (second compound 10 µM) was 1790 nM. The IC50 (second compound 31.6 µM) was over 3000 nM, the IC50 (second compound 100 µM) was 678 nM and the viability, T/C (second compound 1 µM, first compound 0.00949 µM) was 123%. It also gave a viability, T/C (second compound 1 µM, first compound 0.03 µM) of 97.7%, a viability, T/C (second compound 1 µM, first compound 0.0949 µM) of 78.7% and a viability, T/C (second compound 1 µM, first compound 0.3 µM) of 60.5%. It also gave a viability, T/C (second compound 1 µM, first compound 0.949 µM) of 51.3%, a viability, T/C (second compound 1 µM, first compound 3 µM) of 47.3% and a viability, T/C (second compound 3.16 µM, first compound 0.00949 µM) of 96.7%. For the same compound, the viability, T/C (second compound 3.16 µM, first compound 0.03 µM) was 125%, the viability, T/C (second compound 3.16 µM, first compound 0.0949 µM) was 92.4% and the viability, T/C (second compound 3.16 µM, first compound 0.3 µM) was 60.4%. It also gave a viability, T/C (second compound 3.16 µM, first compound 0.949 µM) of 49.7%, a viability, T/C (second compound 3.16 µM, first compound 3 µM) of 45.8% and a viability, T/C (second compound 10 µM, first compound 0.00949 µM) of 102%. For the same compound, the viability, T/C (second compound 10 µM, first compound 0.03 µM) was 123%, the viability, T/C (second compound 10 µM, first compound 0.0949 µM) was 93.8% and the viability, T/C (second compound 10 µM, first compound 0.3 µM) was 62.7%. It also gave a viability, T/C (second compound 10 µM, first compound 0.949 µM) of 50.7%, a viability, T/C (second compound 10 µM, first compound 3 µM) of 48.5% and a viability, T/C (second compound 31.6 µM, first compound 0.00949 µM) of 95.6%. For the same compound, the viability, T/C (second compound 31.6 µM, first compound 0.03 µM) was 108%, the viability, T/C (second compound 31.6 µM, first compound 0.0949 µM) was 91.7% and the viability, T/C (second compound 31.6 µM, first compound 0.3 µM) was 60%. It also gave a viability, T/C (second compound 31.6 µM, first compound 0.949 µM) of 50%, a viability, T/C (second compound 31.6 µM, first compound 3 µM) of 51.4% and a viability, T/C (second compound 100 µM, first compound 0.00949 µM) of 91.5%. The viability, T/C (second compound 100 µM, first compound 0.03 µM) was 87%, the viability, T/C (second compound 100 µM, first compound 0.0949 µM) was 83.2% and the viability, T/C (second compound 100 µM, first compound 0.3 µM) was 58.6%. For the same compound, the viability, T/C (second compound 100 µM, first compound 0.949 µM) was 47.3% and the viability, T/C (second compound 100 µM, first compound 3 µM) was 43.7%.

`Cc1sc2c(c1C)C(c1ccc(Cl)cc1)=NC(CC(=O)Nc1ccc(O)cc1)c1nnc(C)n1-2` (stereo not given) + CC[C@@]1(O)C(=O)OCc2c1cc1n(c2=O)Cc2cc3c(CN(C)C)c(O)ccc3nc2-1 showed an IC50 (second compound 0.003 µM) of 1860 nM, an IC50 (second compound 0.00949 µM) of over 3000 nM and an IC50 (second compound 0.03 µM) of 2500 nM. For the same compound, the IC50 (second compound 0.0949 µM) was 1210 nM, the IC50 (second compound 0.3 µM) was 10.6 nM and the viability, T/C (second compound 0.003 µM, first compound 0.00949 µM) was 113%. For the same compound, the viability, T/C (second compound 0.003 µM, first compound 0.03 µM) was 98.3%, the viability, T/C (second compound 0.003 µM, first compound 0.0949 µM) was 85.1% and the viability, T/C (second compound 0.003 µM, first compound 0.3 µM) was 66.9%. The viability, T/C (second compound 0.003 µM, first compound 0.949 µM) was 51.9%, the viability, T/C (second compound 0.003 µM, first compound 3 µM) was 48.4% and the viability, T/C (second compound 0.00949 µM, first compound 0.00949 µM) was 82%. It also gave a viability, T/C (second compound 0.00949 µM, first compound 0.03 µM) of 85.7%, a viability, T/C (second compound 0.00949 µM, first compound 0.0949 µM) of 81.8% and a viability, T/C (second compound 0.00949 µM, first compound 0.3 µM) of 62.4%. The viability, T/C (second compound 0.00949 µM, first compound 0.949 µM) was 54.5%, the viability, T/C (second compound 0.00949 µM, first compound 3 µM) was 50.5% and the viability, T/C (second compound 0.03 µM, first compound 0.00949 µM) was 66.8%. The viability, T/C (second compound 0.03 µM, first compound 0.03 µM) was 64.1%, the viability, T/C (second compound 0.03 µM, first compound 0.0949 µM) was 62% and the viability, T/C (second compound 0.03 µM, first compound 0.3 µM) was 58.1%. The viability, T/C (second compound 0.03 µM, first compound 0.949 µM) was 51.9%, the viability, T/C (second compound 0.03 µM, first compound 3 µM) was 49.4% and the viability, T/C (second compound 0.0949 µM, first compound 0.00949 µM) was 58.4%. For the same compound, the viability, T/C (second compound 0.0949 µM, first compound 0.03 µM) was 60.1%, the viability, T/C (second compound 0.0949 µM, first compound 0.0949 µM) was 60.4% and the viability, T/C (second compound 0.0949 µM, first compound 0.3 µM) was 56.3%. For the same compound, the viability, T/C (second compound 0.0949 µM, first compound 0.949 µM) was 48.8%, the viability, T/C (second compound 0.0949 µM, first compound 3 µM) was 45.4% and the viability, T/C (second compound 0.3 µM, first compound 0.00949 µM) was 50.6%. For the same compound, the viability, T/C (second compound 0.3 µM, first compound 0.03 µM) was 47.8%, the viability, T/C (second compound 0.3 µM, first compound 0.0949 µM) was 47.2% and the viability, T/C (second compound 0.3 µM, first compound 0.3 µM) was 44.9%. It also gave a viability, T/C (second compound 0.3 µM, first compound 0.949 µM) of 37.9% and a viability, T/C (second compound 0.3 µM, first compound 3 µM) of 33.1%.

`CC1COCCN1c1cc(-c2ccnn2C)c2ccnc(-c3ccn[nH]3)c2n1` (stereo not given) + CC[C@@]1(O)C(=O)OCc2c1cc1n(c2=O)Cc2cc3c(CN(C)C)c(O)ccc3nc2-1 was tested, and the IC50 (second compound 0.003 µM) was 56.2 nM, the IC50 (second compound 0.00949 µM) was 31.8 nM and the IC50 (second compound 0.03 µM) was under 31.6 nM. It also gave an IC50 (second compound 0.0949 µM) of under 31.6 nM, an IC50 (second compound 0.3 µM) of under 31.6 nM and a viability, T/C (second compound 0.003 µM, first compound 0.0316 µM) of 51%. For the same compound, the viability, T/C (second compound 0.003 µM, first compound 0.1 µM) was 49.7%, the viability, T/C (second compound 0.003 µM, first compound 0.316 µM) was 39.3% and the viability, T/C (second compound 0.003 µM, first compound 1 µM) was 34.1%. It also gave a viability, T/C (second compound 0.003 µM, first compound 3.16 µM) of 25.9%, a viability, T/C (second compound 0.003 µM, first compound 10 µM) of 26.9% and a viability, T/C (second compound 0.00949 µM, first compound 0.0316 µM) of 50.3%. For the same compound, the viability, T/C (second compound 0.00949 µM, first compound 0.1 µM) was 44%, the viability, T/C (second compound 0.00949 µM, first compound 0.316 µM) was 42.2% and the viability, T/C (second compound 0.00949 µM, first compound 1 µM) was 34.6%. It also gave a viability, T/C (second compound 0.00949 µM, first compound 3.16 µM) of 26.5%, a viability, T/C (second compound 0.00949 µM, first compound 10 µM) of 23.8% and a viability, T/C (second compound 0.03 µM, first compound 0.0316 µM) of 48.7%. It also gave a viability, T/C (second compound 0.03 µM, first compound 0.1 µM) of 44.5%, a viability, T/C (second compound 0.03 µM, first compound 0.316 µM) of 48.4% and a viability, T/C (second compound 0.03 µM, first compound 1 µM) of 34.6%. It also gave a viability, T/C (second compound 0.03 µM, first compound 3.16 µM) of 26.1%, a viability, T/C (second compound 0.03 µM, first compound 10 µM) of 23.5% and a viability, T/C (second compound 0.0949 µM, first compound 0.0316 µM) of 45.8%. It also gave a viability, T/C (second compound 0.0949 µM, first compound 0.1 µM) of 43.8%, a viability, T/C (second compound 0.0949 µM, first compound 0.316 µM) of 41% and a viability, T/C (second compound 0.0949 µM, first compound 1 µM) of 28.3%. The viability, T/C (second compound 0.0949 µM, first compound 3.16 µM) was 26.9%, the viability, T/C (second compound 0.0949 µM, first compound 10 µM) was 21.8% and the viability, T/C (second compound 0.3 µM, first compound 0.0316 µM) was 41.1%. It also gave a viability, T/C (second compound 0.3 µM, first compound 0.1 µM) of 39.9%, a viability, T/C (second compound 0.3 µM, first compound 0.316 µM) of 34% and a viability, T/C (second compound 0.3 µM, first compound 1 µM) of 28.1%. The viability, T/C (second compound 0.3 µM, first compound 3.16 µM) was 21.2% and the viability, T/C (second compound 0.3 µM, first compound 10 µM) was 17.5%.
